Laboratory results from article PMC9194936, “Preclinical Activity and Pharmacokinetic/Pharmacodynamic Relationship for a Series of Novel Benzenesulfonamide Perforin Inhibitors” (ACS Pharmacology & Translational Science, 2022).
Marks after values point to notes of the source that are not given here.

Assays:
[1] = Binding to proteins in KHYG-1 cell media (RPMI with 0.1% BSA) by equilibrium dialysis; assay type: in vitro ADME; conditions: bovine, pH 7.4, read-out: free fraction in the KHYG-1 cell media
[2] = Plasma protein binding by equilibrium dialysis; assay type: in vitro ADME, mouse
Method: The plasma protein binding of the compounds was determined by equilibrium dialysis (12–14 kDa cutoff membrane). […] The dialysis unit was covered with an adhesive sealing film to prevent evaporation of the contents and placed in an incubator (Innova-42, New Brunswick Scientific) maintained at 37 °C with gentle mixing (80 rpm) for 6 h. Next, a 10 μL sample was aspirated from the plasma side and mixed with 90 μL of fresh PBS, whereas a 90 μL sample from the buffer side was removed and combined with 10 μL of drug-free plasma to ensure uniform matrix composition. Ice-cold acetonitrile (300 μL; Merck Millipore, Burlington, MA) containing internal standard (a BZS analogue of similar chemical structure) was added to each sample to precipitate protein and was vortexed for 2 min and centrifuged for 5 min at 13 000 rpm. The supernatant was diluted with 0.01% formic acid in ultrapure water (Milli-Q) (1:1) and quantitated by liquid chromatography–tandem mass spectrometry (LC-MS/MS). Each compound was tested in triplicate alongside control compounds known to have low (e.g., lidocaine) and high (e.g., amitriptyline) plasma protein binding. For media binding studies, the same assay was used, but RPMI with 0.1% BSA was used in place of CD1 mouse plasma.

[3] = Splenocyte cellularity and tolerability in the bone marrow transfer assay; assay type: in vivo; conditions: all dose levels (100, 75 and 50% of MTD), qd x 4
Method: For the determination of splenic cell counts, mouse spleens were harvested and the cells dispersed in media by gentle teasing and then centrifuged at 500g. Cell pellets were resuspended in media and total spleen cell counts were performed manually using a standard hemocytometer and light microscopy. […] Peripheral blood cell counts and spleen white blood cell counts were determined on a Beckman Coulter Ac.T diff hematology analyzer.

[4] = Bodyweight, spleen and blood cellularity in unmanipulated naive mice; assay type: in vivo, mouse
From the text: Splenic atrophy may occur as a direct treatment-related effect or indirectly subsequent to bodyweight loss.[32] Spleen size does normally vary so is not a reliable indicator of splenic dysfunction;[33] however, severe atrophy can prevent the normal function of the spleen and indicate systemic immunotoxicity.[34] Given that reduced splenic cellularity had not been noted in other in vivo mouse disease models using 1,[14],[15] we further investigated the impact of 1 on mouse spleen using extended dosing strategies on unmanipulated naïve mice and assessing changes in bodyweight, splenocyte, and blood cell counts and leukocyte frequencies in the spleen. The mice were treated with either 100 or 150 mg/kg of 1 given by intraperitoneal injection twice daily for up to 7 days.
For the determination of splenic cell counts, mouse spleens were harvested and the cells dispersed in media by gentle teasing and then centrifuged at 500g. Cell pellets were resuspended in media and total spleen cell counts were performed manually using a standard hemocytometer and light microscopy. Lymphocyte subsets were quantified by flow cytometry using the following antibody reagents: BV605 rat anti-mouse CD3 clone 17A2 (#564009, BD Biosciences); BV786 rat anti-mouse CD4 clone RM4–5 (#563727, BD Biosciences); BV711 rat anti-mouse CD8a clone 53-6.7 (#100748, BioLegend); PE-Cy7 mouse anti-mouse NK1.1 clone PK136 mouse (#552878, BD Biosciences); APC rat anti-mouse CD19 clone 1D3 (#550992, BD Biosciences). Peripheral blood cell counts and spleen white blood cell counts were determined on a Beckman Coulter Ac.T diff hematology analyzer.

perforin = target: T1, perforin (Mus musculus, UniProt P10820); test: PK/PD relationship (sigmoid Emax model, regression analysis); conditions: in vivo mouse model
T1 construct: endogenous in cells; host or cells: recipient cytotoxic lymphocytes (NK/CTL) of wild-type C57BL/6 mice, in vivo
T1 sequence (P10820 21-554): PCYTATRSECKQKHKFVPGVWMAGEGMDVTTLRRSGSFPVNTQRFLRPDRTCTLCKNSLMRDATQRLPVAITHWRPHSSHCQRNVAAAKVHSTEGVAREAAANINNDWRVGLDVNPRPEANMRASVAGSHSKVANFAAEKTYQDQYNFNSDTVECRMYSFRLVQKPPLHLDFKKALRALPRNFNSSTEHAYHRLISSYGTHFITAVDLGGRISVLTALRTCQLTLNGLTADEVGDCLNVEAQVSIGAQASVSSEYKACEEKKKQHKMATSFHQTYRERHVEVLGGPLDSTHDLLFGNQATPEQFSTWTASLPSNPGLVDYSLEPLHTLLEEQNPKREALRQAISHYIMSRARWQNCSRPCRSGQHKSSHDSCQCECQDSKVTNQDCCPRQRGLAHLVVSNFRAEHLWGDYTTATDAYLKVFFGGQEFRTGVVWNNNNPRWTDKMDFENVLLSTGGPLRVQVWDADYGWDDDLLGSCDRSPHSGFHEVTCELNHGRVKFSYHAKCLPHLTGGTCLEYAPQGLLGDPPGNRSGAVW
Method: The relationship between efficacy (% perforin inhibition in peripheral blood and spleen) and pharmacokinetics was determined for different pharmacokinetic properties (Figure 5A,B). […] Simply maintaining the concentrations above a minimal level without reaching very high levels was not sufficient for perforin inhibition, as exemplified by three doses at 80 mg/kg.
The normality of in vivo perforin inhibition data was checked by Shapiro–Wilk and D’Agostino–Pearson normality tests. Statistical tests were performed by one-way ANOVA with multiple comparisons made to the vehicle-treated group and corrected using Dunnett’s post-test analysis. A comparison of measured and simulated plasma concentrations was analyzed by linear regression. Efficacy data were correlated to pharmacokinetic data using a sigmoid Emax model and regression analysis. All statistical analyses were conducted using Prism v8 or 9.

## CN1Cc2cc(-c3ccc(-c4cncc(NS(=O)(=O)c5ccccc5[N+](=O)[O-])c4)s3)ccc2C1=O [Compound 1, N-{5-[5-(2-methyl-1-oxo-2,3-dihydro-1H-isoindol-5-yl)-2-thienyl]-3-pyridinyl}-2-nitrobenzenesulfonamide]
[1]
  fraction unbound at 6 h, 10 μM: 0.144
[2]; CD1, mouse, pH 7.4, without saturation of plasma protein binding (99.8% protein-bound), read-out: free fraction in plasma
  fraction unbound at 6 h: 0.002
[2]; CD1, mouse, pooled mouse plasma, pH 7.4, at a free fraction of 0.002, read-out: total plasma concentrations required to achieve unbound plasma concentrations equivalent to the in vitro unbound IC90
  total plasma concentration required for unbound IC90 at 6 h: ~350 µM
[2]; CD1, pH 7.4, mouse plasma, 10 μM, equilibrium dialysis
  fraction unbound at 6 h, 10 μM: 0.002
[2]; CD1, pooled mouse plasma, pH 7.4, concentration 10 μM, mouse plasma
  fraction unbound at 6 h, 10 μM: 0.002
[2]; CD1, pooled mouse plasma, pH 7.4, concentration 100 μM, mouse plasma
  fraction unbound at 6 h, 100 μM: 0.0006
[2]; CD1, pooled mouse plasma, pH 7.4, concentration 500 μM, mouse plasma
  fraction unbound at 6 h, 500 μM: 0.0019
[2]; CD1, pooled mouse plasma, pH 7.4, concentration 1000 μM, mouse plasma
  fraction unbound at 6 h, 1000 μM: 0.0038
[2]; between 500 and 1000 μM
  increase in free drug concentrations: 4 fold
[2]; concentration 10 μM, mouse plasma
  unbound concentration: 20 nM
[2]; concentration 100 μM, mouse plasma
  unbound concentration: 60 nM
[2]; concentration 500 μM, mouse plasma
  unbound concentration: 950 nM
[2]; concentration 1000 μM, mouse plasma
  unbound concentration: 3800 nM
[3]
  reductions in splenocyte number: only minor reductions
  tolerability: well tolerated
[4]; 100 mg/kg i.p. bid ×7, n = 2
  platelets: 1041.5 ± 0.3 ^b ×10^9/L
  red blood cell: 9.9 ± 0.3 ^b ×10^12/L
  white blood cell: 6.1 ± 2.0 ^b ×10^9/L
[4]; 100 mg/kg i.p. bid ×7, n = 6
  % change in bodyweight: –5 ± 2%
  spleen: % CD3+CD4+: 7.9 ± 3.3%
  spleen: % CD3+CD8+: 9.1 ± 2.6%
  spleen: % CD19+: 45.4 ± 10.1%
  spleen: % NK1.1+: 2.3 ± 0.6%
  spleen: total cell count: 0.39 ± 0.08 ×10^8
[4]; 150 mg/kg i.p. bid ×3, n = 3
  % change in bodyweight: –5.1 ± 5.9%
  platelets: 1163 ± 149 ×10^9/L
  red blood cell: 9.5 ± 0.9 ×10^12/L
  spleen: % CD3+CD4+: 5.6 ± 3.8%
  spleen: % CD3+CD8+: 10.6 ± 3.4%
  spleen: % CD19+: 41.4 ± 5.3%
  spleen: % NK1.1+: 5.0 ± 0.7%
  spleen: total cell count: 0.41 ± 0.46 ×10^8
  white blood cell: 6.0 ± 0.4 ×10^9/L
[4]; 100 or 150 mg/kg i.p. twice daily for up to 7 days
  weight loss, change in spleen or blood cell counts, reduction in splenic T, B or NK cells vs vehicle: Neither dosing schedule resulted in weight loss, change in spleen or blood cell counts or any reduction
perforin
  total plasma concentration to be continuously maintained for optimal perforin inhibition: > 900 µM
